*1 amine or outer side, *2 acyl side, *3 side chain or, on linkers, in order; H or OH if unused. Where a SMILES comes first, the peptide text is derived from it. Side-chain parts run from the residue outwards. [ ]: non-standard residue; d: D form. The star is where a group is joined. C20 diacid = O=C(O)CCCCCCCCCCCCCCCCCCC(=O)*; C16 diacid = O=C(O)CCCCCCCCCCCCCCC(=O)*; γGlu = O=C(O)[C@H](CCC(=O)[*:2])N[*:1]; NMeI = CC[C@H](C)[C@H](NC)C(=O)O; Aib = CC(C)(N)C(=O)O
Key:
[1] = In vitro subcutaneous tissue supernatant (SCts) stability and metabolite identification, rat; type: in vitro ADME; set-up: remaining at 2 h: dose or concentration left out as unconfirmed; conditions: male, Sprague Dawley; rat subcutaneous tissue supernatant (SCts), 37° C, 2 h
Experimental: In vitro metabolic stability in subcutaneous tissue supernatant (SCts) was studied in male Sprague Dawley rats. Test compounds were incubated […] for 2 hours at 37° C.
Software aided in vitro metabolite identification on SCts stability samples was performed using either Metabolite Pilot (Sciex) or Biopharma Finder (Thermo). In addition, metabolite identification using Metabolite Pilot was performed on plasma samples of Comp Y following SC administration to rat at 1 mg/kg.

[2] = Chemical stability in buffer (pH 7.4 / pH 4.5), % purity loss; type: physicochemical; conditions: 40° C. vs 5° C., 14 or 28 days; for Buffer stability pH 7.4 % purity loss: 100 mM phosphate buffer pH 7.4
Summary of the method: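 Compounds dissolved at 10 mg/mL target in 100 mM phosphate (pH 7.4) or 100 mM acetate (pH 4.5) buffer for 1 h at room temperature, then centrifuged. Diluted supernatant stored at 5 °C or 40 °C for 14 or 28 days; % purity loss by LC-UV.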

CFR1R receptor = target: T1, CFR1R receptor (Homo sapiens, UniProt P34998); experiment: Activity at anti-target CFR1R receptor, cAMP assay in CRF1R-overexpression CHO-K1 cells; type: cell-based; conditions: 100% = Sauvagine at 100 nM; for EC50: cAMP
T1 construct: host or cells: CHO-K1 (clone 2)
T1 sequence (P34998 24-415): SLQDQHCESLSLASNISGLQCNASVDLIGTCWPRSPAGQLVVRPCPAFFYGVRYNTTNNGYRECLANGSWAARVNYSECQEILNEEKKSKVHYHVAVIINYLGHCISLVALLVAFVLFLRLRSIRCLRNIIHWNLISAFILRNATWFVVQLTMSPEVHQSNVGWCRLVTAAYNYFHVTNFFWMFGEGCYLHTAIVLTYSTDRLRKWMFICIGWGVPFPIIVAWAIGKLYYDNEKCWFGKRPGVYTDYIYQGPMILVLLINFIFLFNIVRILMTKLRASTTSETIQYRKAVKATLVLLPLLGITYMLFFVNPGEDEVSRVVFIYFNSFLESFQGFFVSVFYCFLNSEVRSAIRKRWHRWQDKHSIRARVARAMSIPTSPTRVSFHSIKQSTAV
Summary of the method: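 Signal is normalised to 100 nM Sauvagine, taken as 100% activation, in clone 2 cells plated at a final 4000 cells/well from frozen stocks.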

human CRF2a receptor = target: T2, human CRF2a receptor (Homo sapiens, UniProt Q13324); experiment: Activity at human CRF2a receptor, cAMP functional assay in TeloHEAC cells; type: cell-based; conditions: TeloHEAC cells stably expressing human CRF2a receptor, relative to urocortin 2 (100 nM = 100%)
T2 construct: expressed in transfected cells; host or cells: TeloHEAC cells
T2 sequence (Q13324 1-411): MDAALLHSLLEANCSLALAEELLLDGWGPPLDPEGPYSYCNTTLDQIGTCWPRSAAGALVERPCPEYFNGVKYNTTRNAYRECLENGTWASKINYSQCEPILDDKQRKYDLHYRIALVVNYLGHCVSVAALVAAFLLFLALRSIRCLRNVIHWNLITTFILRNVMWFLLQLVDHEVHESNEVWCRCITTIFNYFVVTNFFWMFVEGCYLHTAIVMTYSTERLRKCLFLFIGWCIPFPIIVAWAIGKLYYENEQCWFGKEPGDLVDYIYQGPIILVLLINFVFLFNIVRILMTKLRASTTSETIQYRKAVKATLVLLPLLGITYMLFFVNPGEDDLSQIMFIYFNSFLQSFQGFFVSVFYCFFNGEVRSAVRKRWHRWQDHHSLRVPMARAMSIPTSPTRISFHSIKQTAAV
Summary of the method: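 TeloHEAC cells stably expressing human CRF2a (10000 cells/well, suspended in HBSS/20 mM HEPES with 2 mM IBMX) were exposed to compounds for 30 min at 37 °C. cAMP was read as the 665/620 nm fluorescence ratio after 1 h at room temperature. EC50 was derived relative to 100 nM urocortin 2, set as 100%.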

Sprague Dawley rats = experiment: Effect on systolic blood pressure, telemetry in Sprague Dawley rats; type: in vivo, rat; conditions: 0.1 mg/kg SC; for Systolic blood pressure (Mean) % change from baseline, 8 h / Systolic blood pressure (Mean) % change from baseline, 12 h / Systolic blood pressure (Mean) % change from baseline, 24 h: n=2; for Duration of action: last time point with an effect on BP still observed
Summary of the method: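 Sprague Dawley rats with abdominal-aorta telemetry catheters, recovered ≥10 days, received 0.1 mg/kg SC of compound or vehicle. Systolic pressure recorded 1 h pre-dose as baseline, then continuously up to 48 hours, expressed as % change from baseline; duration of action is last time point with a BP effect (n=2).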

SMILES | remaining at 2 h [1] [%] | Buffer stability pH 7.4 % purity loss [2] | Emax (% I) (CFR1R receptor) | EC50 (CFR1R receptor) [nM] | EC50 (human CRF2a receptor) [nM] | Systolic blood pressure (Mean) % change from baseline, 8 h (Sprague Dawley rats) [%] | Systolic blood pressure (Mean) % change from baseline, 12 h (Sprague Dawley rats) [%] | Systolic blood pressure (Mean) % change from baseline, 24 h (Sprague Dawley rats) [%] | Duration of action (Sprague Dawley rats) [h] | Buffer stability pH 4.5 % purity loss ([2]; 100 mM acetate buffer pH 4.5)
CC[C@H](C)[C@H](NC(C)=O)C(=O)N[C@H](C(=O)N[C@@H](CC(C)C)C(=O)N[C@@H](CO)C(=O)N[C@@H](CC(C)C)C(=O)N[C@@H](CC(=O)O)C(=O)N[C@@H](C(=O)N1CCC[C@H]1C(=O)N[C@H](C(=O)N[C@@H](CCCCN)C(=O)N[C@@H](CC(C)C)C(=O)N[C@@H](CCCCNC(=O)CC[C@H](NC(=O)CCCCCCCCCCCCCCC(=O)O)C(=O)O)C(=O)N[C@@H](CCCCN)C(=O)N[C@H](C(=O)N[C@@H](CC(C)C)C(=O)N[C@@H](CC(C)C)C(=O)N[C@@H](CCC(=O)O)C(=O)N[C@@H](CCC(N)=O)C(=O)N[C@@H](CCC(=O)O)C(=O)N[C@@H](CCCCN)C(=O)N[C@@H](CCC(N)=O)C(=O)N[C@@H](CCCCN)C(=O)N[C@@H](CCCCN)C(=O)N[C@@H](CCC(N)=O)C(=O)N[C@@H](CCCNC(=N)N)C(=O)N[C@@H](CCC(=O)O)C(=O)N[C@@H](CCC(N)=O)C(=O)N[C@@H](C)C(=O)N[C@@H](CCC(=O)O)C(=O)N[C@H](C(=O)N[C@@H](CC(N)=O)C(=O)NC(C)(C)C(=O)N[C@@H](CCC(N)=O)C(=O)N[C@H](C(=O)N[C@@H](CC(C)C)C(=O)N[C@@H](C)C(=O)N[C@@H](CCC(N)=O)C(=O)N[C@H](C(N)=O)C(C)C)[C@@H](C)CC)[C@@H](C)O)[C@@H](C)CC)[C@@H](C)CC)C(C)C)C(C)C [compound 40] (Ac-IVLSLD[dV]PIKLK([γGlu-C16 diacid])KILLEQEKQKKQREQAETN[Aib]QILAQV-NH2) | 79 | 0/nd ^ % | 0 | > 250 | 0.25 | −30 | −18 | 7 | 23 | –
CC[C@H](C)[C@H](NC(C)=O)C(=O)N[C@H](C(=O)N[C@@H](CC(C)C)C(=O)N[C@@H](CO)C(=O)N[C@@H](CC(C)C)C(=O)N[C@@H](CC(=O)O)C(=O)N[C@@H](C(=O)N1CCC[C@H]1C(=O)N[C@H](C(=O)N[C@@H](CCCCN)C(=O)N[C@@H](CC(C)C)C(=O)N[C@@H](CCCCNC(=O)CC[C@H](NC(=O)CCCCCCCCCCCCCCC(=O)O)C(=O)O)C(=O)N[C@@H](CCCCN)C(=O)N[C@H](C(=O)N[C@@H](CC(C)C)C(=O)N[C@@H](CC(C)C)C(=O)N[C@@H](CCC(=O)O)C(=O)N[C@@H](CCC(N)=O)C(=O)N[C@@H](CCC(=O)O)C(=O)N[C@@H](C)C(=O)N[C@@H](CCC(N)=O)C(=O)N[C@@H](CCCCN)C(=O)N[C@@H](CCCCN)C(=O)N[C@@H](CCC(N)=O)C(=O)N[C@@H](CCCNC(=N)N)C(=O)N[C@@H](CCC(=O)O)C(=O)N[C@@H](CCC(N)=O)C(=O)N[C@@H](C)C(=O)N[C@@H](CCC(=O)O)C(=O)N[C@H](C(=O)N[C@@H](CC(N)=O)C(=O)NC(C)(C)C(=O)N[C@@H](CCC(N)=O)C(=O)N[C@H](C(=O)N[C@@H](CC(C)C)C(=O)N[C@@H](C)C(=O)N[C@@H](CCC(N)=O)C(=O)N[C@H](C(N)=O)C(C)C)[C@@H](C)CC)[C@@H](C)O)[C@@H](C)CC)[C@@H](C)CC)C(C)C)C(C)C [compound 165] (Ac-IVLSLD[dV]PIKLK([γGlu-C16 diacid])KILLEQEAQKKQREQAETN[Aib]QILAQV-NH2) | 72 | 0.0/Not Tested % | 14 | > 250 | 0.64 | −30 | −20 | 2 | 23 | –
CC[C@H](C)[C@H](NC)C(=O)N[C@H](C(=O)N[C@@H](CC(C)C)C(=O)N[C@@H](CO)C(=O)N[C@@H](CC(C)C)C(=O)N[C@@H](CC(=O)O)C(=O)N[C@@H](C(=O)N1CCC[C@H]1C(=O)N[C@H](C(=O)N[C@@H](CCCCN)C(=O)N[C@@H](CC(C)C)C(=O)N[C@@H](CCCCNC(=O)CC[C@H](NC(=O)CCCCCCCCCCCCCCCCCCC(=O)O)C(=O)O)C(=O)N[C@@H](CCCCN)C(=O)N[C@H](C(=O)N[C@@H](CC(C)C)C(=O)N[C@@H](CC(C)C)C(=O)N[C@@H](CCC(=O)O)C(=O)N[C@@H](CCC(N)=O)C(=O)N[C@@H](CCC(=O)O)C(=O)N[C@@H](CCCCN)C(=O)N[C@@H](CCC(N)=O)C(=O)N[C@@H](CCCCN)C(=O)N[C@@H](CCCCN)C(=O)N[C@@H](CCC(N)=O)C(=O)N[C@@H](CCCNC(=N)N)C(=O)N[C@@H](CCC(=O)O)C(=O)N[C@@H](CCC(N)=O)C(=O)N[C@@H](C)C(=O)N[C@@H](CCC(=O)O)C(=O)N[C@H](C(=O)N[C@@H](CC(N)=O)C(=O)NC(C)(C)C(=O)N[C@@H](CCC(N)=O)C(=O)N[C@H](C(=O)N[C@@H](CC(C)C)C(=O)N[C@@H](C)C(=O)N[C@@H](CCC(N)=O)C(=O)N[C@H](C(N)=O)C(C)C)[C@@H](C)CC)[C@@H](C)O)[C@@H](C)CC)[C@@H](C)CC)C(C)C)C(C)C [compound 214] (H-[NMeI]VLSLD[dV]PIKLK([γGlu-C20 diacid])KILLEQEKQKKQREQAETN[Aib]QILAQV-NH2) | 72 | 0.0/0.0 ^ % | 34 | > 250 | 0.12 | – | – | – | – | 0.0/0.0 ^ %

Reference: patent publication US20260001928A1 (CORTERIA PHARMACEUTICALS, priority 2022, published 2026)
